Data as given in PMC5506005, “A novel protein kinase inhibitor IMB-YH-8 with anti-tuberculosis activity” (Scientific Reports, 2017).
Values after ≈ are worked out from the molar mass of the structure shown. Like-named read-outs stand apart in the source and are kept apart here.

Tests used:
[1] = test system: intracellular M. tuberculosis H37Rv; test: Intracellular activity assay in infected THP-1 cells (CFU); type: cell-based; details: 3 days; for Log10CFU: infected THP-1 cells, mean ± SD, untreated 5.03 ± 0.12
PknB [2] = molecular target: T1, PknB (Mycobacterium tuberculosis, UniProt P9WI81); test: In vitro protein kinase assay (Kinase Glo), auto-phosphorylation of PknB; type: biochemical, M. tuberculosis; details: non-radioactive Kinase Glo assay, 100 μM ATP
T1 sequence (P9WI81 11-274 limits assumed): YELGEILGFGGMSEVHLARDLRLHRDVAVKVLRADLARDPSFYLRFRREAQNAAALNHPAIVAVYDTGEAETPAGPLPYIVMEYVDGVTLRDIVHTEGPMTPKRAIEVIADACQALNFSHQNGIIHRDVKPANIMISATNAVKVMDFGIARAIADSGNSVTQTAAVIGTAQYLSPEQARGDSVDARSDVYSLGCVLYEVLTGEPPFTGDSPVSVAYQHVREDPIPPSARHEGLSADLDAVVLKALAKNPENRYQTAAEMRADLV

PknA = molecular target: T2, PknA (Mycobacterium tuberculosis, UniProt P9WI83); test: In vitro protein kinase assay (Kinase Glo), auto-phosphorylation of PknA; type: biochemical, M. tuberculosis
T2 sequence (P9WI83 1-431): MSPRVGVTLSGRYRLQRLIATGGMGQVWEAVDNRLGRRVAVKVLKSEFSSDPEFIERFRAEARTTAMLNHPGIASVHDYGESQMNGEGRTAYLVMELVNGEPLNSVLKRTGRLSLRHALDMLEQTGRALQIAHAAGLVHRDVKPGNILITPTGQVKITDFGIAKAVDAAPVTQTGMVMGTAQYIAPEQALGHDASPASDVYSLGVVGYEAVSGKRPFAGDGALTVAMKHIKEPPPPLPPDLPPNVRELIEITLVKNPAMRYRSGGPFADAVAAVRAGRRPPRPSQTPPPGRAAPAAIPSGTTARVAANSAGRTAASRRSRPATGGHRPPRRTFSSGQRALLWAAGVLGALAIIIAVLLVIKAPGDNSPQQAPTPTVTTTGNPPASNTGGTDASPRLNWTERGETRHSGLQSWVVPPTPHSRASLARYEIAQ

PknG = PknG (Mycobacterium tuberculosis, UniProt P9WI73); test: In vitro protein kinase assay (Kinase Glo), auto-phosphorylation of PknG; type: biochemical, M. tuberculosis
Chain of PknG (P9WI73 whole entry): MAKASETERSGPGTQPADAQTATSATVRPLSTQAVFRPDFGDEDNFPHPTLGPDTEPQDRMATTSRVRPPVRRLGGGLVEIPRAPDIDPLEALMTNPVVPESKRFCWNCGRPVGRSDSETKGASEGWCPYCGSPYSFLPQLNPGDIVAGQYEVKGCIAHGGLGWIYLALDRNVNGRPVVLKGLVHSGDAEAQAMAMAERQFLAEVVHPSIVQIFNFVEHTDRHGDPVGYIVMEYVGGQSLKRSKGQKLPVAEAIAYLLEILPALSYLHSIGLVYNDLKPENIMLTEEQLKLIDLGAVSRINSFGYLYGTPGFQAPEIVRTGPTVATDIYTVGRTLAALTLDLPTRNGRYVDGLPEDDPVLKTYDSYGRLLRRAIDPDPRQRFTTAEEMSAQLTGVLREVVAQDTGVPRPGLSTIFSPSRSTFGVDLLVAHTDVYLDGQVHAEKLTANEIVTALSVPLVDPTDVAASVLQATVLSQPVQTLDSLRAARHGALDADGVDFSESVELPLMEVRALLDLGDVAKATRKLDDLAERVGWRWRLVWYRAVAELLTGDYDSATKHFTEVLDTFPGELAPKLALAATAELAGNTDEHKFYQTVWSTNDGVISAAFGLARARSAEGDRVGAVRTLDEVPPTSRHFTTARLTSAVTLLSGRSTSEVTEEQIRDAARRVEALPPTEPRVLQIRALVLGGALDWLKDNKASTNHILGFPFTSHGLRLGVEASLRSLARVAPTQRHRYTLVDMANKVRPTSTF

PknF = PknF (Mycobacterium tuberculosis, UniProt P9WI75); test: In vitro protein kinase assay (Kinase Glo), auto-phosphorylation of PknF; type: biochemical, M. tuberculosis
Chain of PknF (P9WI75 whole entry): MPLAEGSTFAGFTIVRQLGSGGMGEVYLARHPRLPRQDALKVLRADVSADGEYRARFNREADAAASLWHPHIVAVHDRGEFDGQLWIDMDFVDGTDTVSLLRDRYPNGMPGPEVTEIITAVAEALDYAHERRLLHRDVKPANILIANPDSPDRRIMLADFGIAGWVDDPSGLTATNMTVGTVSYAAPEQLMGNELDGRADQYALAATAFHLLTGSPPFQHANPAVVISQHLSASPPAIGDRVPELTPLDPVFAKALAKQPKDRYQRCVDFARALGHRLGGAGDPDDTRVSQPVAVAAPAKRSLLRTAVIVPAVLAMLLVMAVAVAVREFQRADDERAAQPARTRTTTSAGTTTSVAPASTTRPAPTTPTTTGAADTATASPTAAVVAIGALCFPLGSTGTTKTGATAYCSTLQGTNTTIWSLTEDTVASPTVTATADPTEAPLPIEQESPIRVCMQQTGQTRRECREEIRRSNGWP

PknH = PknH (Mycobacterium tuberculosis, UniProt P9WI71); test: In vitro protein kinase assay (Kinase Glo), auto-phosphorylation of PknH; type: biochemical
Chain of PknH (P9WI71 whole entry): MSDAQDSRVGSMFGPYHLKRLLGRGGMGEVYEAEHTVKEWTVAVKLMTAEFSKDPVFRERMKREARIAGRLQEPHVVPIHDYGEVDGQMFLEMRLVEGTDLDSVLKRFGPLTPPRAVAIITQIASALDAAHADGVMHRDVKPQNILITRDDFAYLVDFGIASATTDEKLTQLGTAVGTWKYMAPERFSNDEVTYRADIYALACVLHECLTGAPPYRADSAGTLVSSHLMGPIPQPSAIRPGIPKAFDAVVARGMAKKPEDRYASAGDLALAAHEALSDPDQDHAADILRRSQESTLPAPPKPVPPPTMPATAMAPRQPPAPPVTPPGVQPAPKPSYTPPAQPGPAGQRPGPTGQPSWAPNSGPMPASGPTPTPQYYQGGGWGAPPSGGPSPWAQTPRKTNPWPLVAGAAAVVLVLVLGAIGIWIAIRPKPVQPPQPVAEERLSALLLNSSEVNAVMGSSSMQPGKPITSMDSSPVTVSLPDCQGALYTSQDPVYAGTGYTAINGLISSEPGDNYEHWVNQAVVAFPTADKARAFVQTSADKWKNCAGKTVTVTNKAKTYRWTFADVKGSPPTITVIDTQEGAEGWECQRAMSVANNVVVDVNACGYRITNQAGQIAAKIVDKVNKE

human kinase Akt1 = human kinase Akt1 (Homo sapiens, UniProt P31749); test: In vitro protein kinase assay (Kinase Glo), auto-phosphorylation of Akt1; type: biochemical
Chain of human kinase Akt1 (P31749 whole entry): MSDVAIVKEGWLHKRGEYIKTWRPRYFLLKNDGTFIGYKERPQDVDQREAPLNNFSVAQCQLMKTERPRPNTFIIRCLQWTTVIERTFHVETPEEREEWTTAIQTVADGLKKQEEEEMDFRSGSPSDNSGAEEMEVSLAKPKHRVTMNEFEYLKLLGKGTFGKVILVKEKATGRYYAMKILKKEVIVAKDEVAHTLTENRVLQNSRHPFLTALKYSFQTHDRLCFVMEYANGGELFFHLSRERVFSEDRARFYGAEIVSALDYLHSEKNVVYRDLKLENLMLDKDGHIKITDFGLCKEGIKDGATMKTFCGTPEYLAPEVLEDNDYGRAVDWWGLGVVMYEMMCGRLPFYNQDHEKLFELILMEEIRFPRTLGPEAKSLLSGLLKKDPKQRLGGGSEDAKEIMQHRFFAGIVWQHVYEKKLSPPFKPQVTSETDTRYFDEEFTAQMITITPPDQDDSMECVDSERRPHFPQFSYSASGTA

PknB [3] = molecular target: T1, PknB; test: Phosphorylation of GarA by PknB, Phos-tag SDS-PAGE; type: biochemical, M. tuberculosis; details: non-phosphorylated GarA increased in a dose-dependent manner
Procedure: In vitro phosphorylation of GarA (5 μM) by PknB (3 μM) was carried out in 50 μl reaction mixture (25 mM Tris-HCl (pH = 7.4), 5 mM MgCl2, 2 mM MnCl2). The reaction was initiated with the additional of 100 μM ATP and incubated at 37 °C for 3 hours. The reaction was terminated with the addition of SDS-PAGE sample buffer and heating the mixture at 100 °C for 5 min. The reaction mixtures were analyzed by 12% SDS-PAGE with or without Phos-tag SDS-PAGE to differentiate the phosphorylated and non-phosphorylated GarA. Phos-tag SDS-PAGE was performed with gel containing 20 μM Phos-tag acrylamide (Wako Pure Chemical Industries, Japan) and 100 µM MnCl2 according to the manufacturer’s instructions. Electrophoresis was performed at 4 °C in Tris-glycine SDS-PAGE running buffer at 30 mA for 2 h. Images were adjusted for contrast and brightness using Bio-Rad image lab software version 2.01.

PknB [4] = molecular target: T1, PknB; test: Surface plasmon resonance (BIAcore) binding to PknB; design: species or system M. tuberculosis; details: single cycle kinetics, 1:1 binding model, 25 °C, read-out: Kd for binding to PknB (SPR)
PknB [5] = molecular target: PknB (Mycobacterium tuberculosis, UniProt P9WI81); test: biochemical; type: binding, M. tuberculosis
Target sequence in this assay (P9WI81 1-279 limits assumed): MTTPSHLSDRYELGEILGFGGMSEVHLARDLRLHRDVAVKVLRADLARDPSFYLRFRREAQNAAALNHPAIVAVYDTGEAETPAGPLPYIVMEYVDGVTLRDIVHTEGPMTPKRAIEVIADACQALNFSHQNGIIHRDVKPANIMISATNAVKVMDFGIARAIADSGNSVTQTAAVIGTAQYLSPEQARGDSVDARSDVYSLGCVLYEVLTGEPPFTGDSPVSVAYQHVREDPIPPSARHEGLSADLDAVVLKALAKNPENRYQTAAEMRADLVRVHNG

M. tuberculosis H37Rv [6] = test: MIC by microplate Alamar blue assay (MABA), H37Rv; type: cell-based; details: Mycobacterium tuberculosis
[7] = test system: clinical isolates of M. tuberculosis; test: microbe, parasite or virus in culture; type: cell-based; details: Mycobacterium tuberculosis, clinical isolate 31251, sensitive
M. tuberculosis H37Rv [8] = test: Scanning electron microscopy of cell morphology; type: cell-based; details: 1 μg/ml for 5 days, SEM
Procedure: To determine whether IMB-YH-8 affects the morphology of M. tuberculosis H37Rv, scanning electron microscopy (SEM) was performed. H37Rv was grown to early log phase (optical density at 600 nm, ~0.2). Then 1 μg/ml IMB-YH-8 was added to treat cells, followed by incubation at 37 °C for 5 days. Cells were harvested by low-speed centrifugation and washed in 0.1 M phosphate buffer (pH 7.4). The cells were then fixed in 0.1 M phosphate buffer (pH 7.4) containing 2.5% glutaraldehyde and 0.5% paraformaldehyde. The samples were submitted to the Instrument Center of Institute of Microbiology, Chinese Academy of Sciences for further analysis. Observations were carried out using a SEM (SU8010; Hitachi, Tokyo, Japan). Untreated H37Rv were also processed as control.

[9] = test system: M. tuberculosis gene transcripts (PknB/SigH regulatory pathways); test: Gene expression by microarray; type: cell-based; details: 4 h; for fold induction at 2.5 µg/mL: Mycobacterium tuberculosis; for Regulation: 2.5 μg/ml
Procedure: The drug-treated (2.5 μg/ml IMB-YH-8), together with control (DMSO) mycobacterial cultures, were incubated at 37 °C for 4 h. Total RNAs were isolated by RiboPure^TM-Bacteria Kit (Life Technology, AM1925) according to the manufacturer’s instructions. The quantity and quality of each RNA sample was determined using NanoDrop ND-2000 spectrophotometer (Thermo Scientific, Wilmington, DE) and Agilent 2100 Bioanalyzer (Agilent Technologies, Santa Clara, CA).
The qualified RNA samples were labeled and hybridized on Agilent 4 × 44 K Custom design Gene Expression Microarray according to manufacturer protocol (Agilent, Santa Clara, CA). In brief, 100 ng of each RNA sample was amplified to cRNA and labeled with Cy-3 using Agilent Low Input Quick Amp Labeling Kit. The labeled samples were hybridized for 16 hours at 10 rotations per minute. After hybridization, the arrays were washed and scanned by Agilent scanner and then the image was analyzed by Agilent Feature Extraction v11.5. Data obtained from Feature Extraction were imported to GeneSpring GX version 13.1 (Agilent Technologies, Santa Clara, CA) for 75th percentile shift and baseline to median of all samples normalization.

[10] = test system: M. tuberculosis H37Rv gene transcripts (PknB/SigH regulatory pathways); type: cell-based; details: 2.5 μg/ml, 4 h; for Real-time reverse transcription PCR Normalized ΔCt (mean ± SD): normalized to sigA mRNA
THP-1 cells = details: calculated as the CC50/MIC (THP-1 / H37Rv)
Mycobacterium marinum = test system: Mycobacterium marinum; design: method as in earlier work; details: previous high throughput screening study; cited from earlier work
Mycobacterium smegmatis = test system: Mycobacterium smegmatis; design: method as in earlier work; details: previous high throughput screening study; cited from earlier work
in vitro = details: human
[11] = cited from earlier work

NNC(=O)c1ccncc1 [INH, isoniazid, reference compound]
Log10CFU ([1]; 0.5 μg/ml): 3.24 ± 0.05 | Log10CFU ([1]; 1 μg/ml): 3.14 ± 0.06 | Log10CFU ([1]; 2 μg/ml): 2.57 ± 0.14

COC(=O)/C=C/C(=O)c1ccc(OC)cc1 [IMB-YH-8]
IC50 (PknB [2]): 20.2 µM | IC50 (PknA): 44.3 µM | IC50 (PknG): 349 µM | IC50 (PknF): 503 µM | IC50 (PknH): > 640 µM | IC50 (human kinase Akt1): > 640 µM | PknB-catalyzed phosphorylation of GarA (PknB [3]): inhibited | Kd (PknB [4]): 25.3 µM | Kd (PknB [5]): 13.5 µM | ΔG of binding to PknB (PknB [5]; ITC, 25 °C): -6.64 kcal/mol | ΔH of binding to PknB (PknB [5]; ITC, 25 °C): -5.7 kcal/mol | −TΔS of binding to PknB (PknB [5]; ITC, 25 °C): -0.94 kcal/mol | MIC (M. tuberculosis H37Rv [6]): 0.25 µg/mL | MIC (M. tuberculosis H37Rv [6]; converted from 0.25 μg/ml): 1.14 µM | MIC [7]: 0.25 µg/mL (≈ 1.14 µM) | reduction in CFU compared to untreated control ([1]; 0.5 µg/ml): 0.18 log10 | Log10CFU ([1]; 0.5 μg/ml): 4.85 ± 0.04 | reduction in CFU compared to untreated control ([1]; 1 µg/ml): 0.62 log10 | Log10CFU ([1]; 1 μg/ml): 4.41 ± 0.12 | reduction in CFU compared to untreated control ([1]; 2 µg/ml): 1.11 log10 | Log10CFU ([1]; 2 μg/ml): 3.92 ± 0.11 | proportion of ruptured cells (M. tuberculosis H37Rv [8]): 61.5% | fold induction at 2.5 µg/mL ([9]; read-out: Fold induction in microarray (mean ± SD), gene Rv2466c, 2.5 μg/ml): 6.86 ± 1.93 | fold induction at 2.5 µg/mL ([9]; read-out: Fold induction in microarray (mean ± SD), gene rshA (Rv3221A), 2.5 μg/ml): 6.07 ± 0.33 | fold induction at 2.5 µg/mL ([9]; read-out: Fold induction in microarray (mean ± SD), gene sigH (Rv3223c), 2.5 μg/ml): 2.92 ± 0.09 | fold induction at 2.5 µg/mL ([9]; read-out: Fold induction in microarray (mean ± SD), gene trxB2 (Rv3913), 2.5 μg/ml): 6.9 ± 0.75 | fold induction at 2.5 µg/mL ([9]; read-out: Fold induction in microarray (mean ± SD), gene trxC (Rv3914), 2.5 μg/ml): 8.03 ± 0.33 | Regulation ([9]; gene Rv2466c): Up | Regulation ([9]; gene rshA (Rv3221A)): Up | Regulation ([9]; gene sigH (Rv3223c)): Up | Regulation ([9]; gene trxB2 (Rv3913)): Up | Regulation ([9]; gene trxC (Rv3914)): Up | Real-time reverse transcription PCR Normalized ΔCt (mean ± SD) ([10]; gene Rv2466c): 6.325 ± 2.51 | Real-time reverse transcription PCR Mean fold change (2^ΔΔCt Value) ([10]; gene rshA (Rv3221A)): 264.11 | Real-time reverse transcription PCR Normalized ΔCt (mean ± SD) ([10]; gene rshA (Rv3221A)): 8.045 ± 0.59 | Real-time reverse transcription PCR Mean fold change (2^ΔΔCt Value) ([10]; gene sigH (Rv3223c)): 5.88 | Real-time reverse transcription PCR Normalized ΔCt (mean ± SD) ([10]; gene sigH (Rv3223c)): 2.555 ± 0.11 | Real-time reverse transcription PCR Mean fold change (2^ΔΔCt Value) ([10]; gene trxB2 (Rv3913)): 7.67 | Real-time reverse transcription PCR Normalized ΔCt (mean ± SD) ([10]; gene trxB2 (Rv3913)): 2.940 ± 0.07 | Real-time reverse transcription PCR Mean fold change (2^ΔΔCt Value) ([10]; gene trxC (Rv3914)): 5.48 | Real-time reverse transcription PCR Normalized ΔCt (mean ± SD) ([10]; gene trxC (Rv3914)): 2.455 ± 0.06 | SI, selectivity index (THP-1 cells): 30.4 | inhibition of Mycobacterium marinum (Mycobacterium marinum): inhibited | inhibition of Mycobacterium smegmatis (Mycobacterium smegmatis): inhibited | CC50 at 48 h (in vitro): 7.61 µg/mL (≈ 34.6 µM) | time until serum concentrations fall below the therapeutic range ([11]; oral delivery of 200 mg/kg): less than 1 hour | serum Cmax ([11]; rat, in vivo, po, 200 mg/kg): sub-microgram/ml
